Test system: human vascular smooth muscle cells
Assay: Determination of DNA synthesis inhibition activity (3H-thymidine intake) to human vascular smooth muscle cells
Format: cell-based
Details: for Growth inhibition rate (per cent to control): 1 × 10^−5 M compound added, 3H-thymidine intake after culturing 24 hours, compared with vehicle-treated group as control; for inhibiting activity on the growth of human vascular smooth muscle cells: summary in words of Table 1 (1 × 10^−5 M)
Description: Experiment [Determination of DNA synthesis inhibition activity of PGE1 derivatives to human vascular smooth muscle cells]
On a 24-well plate (manufactured by Corning Co.), 1×10^4 cells/well of quintic culture cells of vascular cells derived from normal human aorta (produced by Kurabo Co.) were inoculated and cultured for 2 days. The medium was exchanged from the growth medium (SG2: produced by Kurabo Co.) to the basal medium (SB2: produced by Kurabo Co.), and cultured for 24 hours, to which was added the growth medium (SG2) containing an ethanol solution of the test compound. ^3H-Thymidine (produced by Daiichi Chemicals Co.) was added in an amount of 0.01 mci/well and, after culturing for 24 hours, the cultured supernatant was removed by suction, followed by washing with a phosphate buffer solution (PBS). 5% Trichloroacetic acid (TCA) was added and, after allowing to stand at 4° C. for 20 minutes, the mixture was washed once with TCA. The mixture was washed with PBS, and dissolved in 0.5 M aqueous potassium hydroxide solution. Intake of ^3H-thymidine was determined using 20 μl of the aqueous potassium hydroxide solution dissolving the cells which incorporated ^3H-thymidine in the nucleus by means of a liquid scintillation counter (manufactured by Hewlett-Packard Co.).
Note: The test compounds were each used as an ethanol solution and compared with a vehicle-treated group as control.

CCCC1(C(O)C/C=C/C2C(SCCO)CC(=O)C2CCCCCCC(=O)OC)CCC1 [Compound 23, (11S,16S)-11,15-dideoxy-11-(2-hydroxyethylthio)-16-hydroxy-17,17-trimethylene-PGE1 methyl ester]
Growth inhibition rate (per cent to control): 91.5 per cent to control
inhibiting activity on the growth of human vascular smooth muscle cells: high inhibiting activity

CCCC1(C(O)C/C=C/C2C(SCCO)CC(=O)C2CCCC/C=C/C(=O)OC)CCC1 [Compound 29, (2E,11R,16R)-11,15-Dideoxy-11-(2-hydroxyethylthio)-16-hydroxy-17,17-trimethylene-2,3-didehydro-PGE1 methyl ester]
Growth inhibition rate (per cent to control): 100 per cent to control
inhibiting activity on the growth of human vascular smooth muscle cells: high inhibiting activity

CCCC1(C(O)C/C=C/C2C(SCCO)CC(=O)C2CCCC/C=C/C(=O)OC)CCC1 [Compound 32, (2E,11R,16S)-11,15-Dideoxy-11-(2-hydroxyethylthio)-16-hydroxy-17,17-trimethylene-2,3-didehydro-PGE1 methyl ester]
Growth inhibition rate (per cent to control): 100 per cent to control
inhibiting activity on the growth of human vascular smooth muscle cells: high inhibiting activity

CCCC1(C(O)C/C=C/C2C(SCCCO)CC(=O)C2CCCCCCC(=O)OC)CCC1 [Compound 41, (11R,16S)-11,15-Dideoxy-11-(3-hydroxypropylthio)-16-hydroxy-17,17-trimethylene-PGE1 methyl ester]
Growth inhibition rate (per cent to control): 93.2 per cent to control
inhibiting activity on the growth of human vascular smooth muscle cells: high inhibiting activity

CCCC1(C(O)C/C=C/C2C(SCC(N)C(=O)OC)CC(=O)C2CCCCCCC(=O)OC)CCC1 [Compound 54, (11R,16S)-11,15-Dideoxy-11-[(2R)-2-methoxycarbonyl-2-aminoethylthio]-16-hydroxy-17,17-trimethylene-PGE1 methyl ester]
Growth inhibition rate (per cent to control): 100 per cent to control
inhibiting activity on the growth of human vascular smooth muscle cells: high inhibiting activity

CCCC1(C(O)C/C=C/C2C(SCC(N)C(=O)OC)CC(=O)C2CCCCCCC(=O)OC)CCC1 [Compound 55, (11S,16S)-11,15-dideoxy-11-[(2R)-2-methoxycarbonyl-2-aminoethylthio]-16-hydroxy-17,17-trimethylene-PGE1 methyl ester]
Growth inhibition rate (per cent to control): 94.3 per cent to control
inhibiting activity on the growth of human vascular smooth muscle cells: high inhibiting activity
